Results: US10501460B2, “Heterocyclic compounds and uses thereof” (Plexxikon Inc., priority 2013, dated 2019)

Legend:
bromodomain = experiment: Bromodomain cell assays of Example 40 (at least one of them); format: cell-based; settings: in at least one of the bromodomain cell assays described in Example 40
How it was run: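 Growth inhibition: 3000 MV-4-11, MOLM-13, MM.1S or neuroblastoma cells/well got an 8-point 1:3 series from 10 μM top (0.2% DMSO) for 72 h, then CellTiter-Glo luminescence. Myc reporter: MV-4-11 with E-box firefly luciferase, 24 h exposure, One-Glo luminescence plus CellTiter-Fluo cell count. pIC50 from four-parameter fit.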

BRD4-BD1 (44-164) = target: T1, BRD4-BD1 (44-164) (Homo sapiens, UniProt O60885); experiment: Alphascreen binding assay BRD4-BD1 (BRD4 biochemical inhibitory activity); settings: read-out: Biochemical activity (IC50 μM) BRD4(1) H4
T1 construct: BRD4-BD1 (44-164); made in house; host or cells: E. coli BL21-CodonPlus (DE3)
Procedure: Binding of compounds of formula (I) with bromodomain 2, 3 4 was assessed using Alphascreen binding assay. The inhibition of the interaction between bromodomain and its acetylated target protein (Filippakopoulos P et al. 2012) was measured quantitatively using recombinant BRD proteins, an acetylated Histone 4 peptide and AlphaScreen™ technology. In absence of inhibition the BRD protein bound to AlphaScreen™ nickel chelate acceptor beads can interact with the acetylated Histone 4 peptide which is immobilized by the AlphaScreen™ Streptavidin coated beads. This interaction brings donor and acceptor beads in proximity. The close proximity allows the singlet oxygen produced by laser excitation of the donor beads to reach the acceptor beads and generate a luminescence signal. BRD inhibitors result in a decrease in the proximity signal through an inhibition of the BRD—acetylated peptide interaction.
Recombinant human bromodomains containing the N-terminal bromodomain (BRD2-BD1 (71-194), BRD3-BD1 (24-144) and BRD4-BD1 (44-164)) or dual bromodomains (BRD4-BD12 (1-477), BRD4-BD12 (1-472)) were prepared and purified as described in protein expression and purification session. The peptide is human Histone H41-21K5AcK8AcK12AcK16Ac-Biotin (Anaspec Calif., USA).
Protocol for BRD2, BRD3 and BRD4 assay: All components are prepared in buffer composed of 50 mM HEPES pH 7.5, 100 mM NaCl, 0.01% bovine serum albumin (“BSA”), 0.01% Triton X-100, 2 mM dithiothreitol (“DTT”). 7 μL of Bromodomain protein and 7 μL of peptide are added to wells containing 1 μL of various concentrations of test compounds of formula (I) or DMSO vehicle in an Alphaplate (PerkinElmer Ga., USA) and incubated for 1 hour at room temperature. 4 μL donor and acceptor bead mixture is then added with final concentrations of 7.5 μg/ml. 30 minutes after bead addition, Alpha signal is read on the Envision spectrometer ([…]Ex 680 nm, […]Em 520-620 nm). Final concentrations of bromodomain proteins and peptide are as shown below.
All data was normalized to the mean of 16 high and 16 low control wells on each plate. A four parameter curve fit of the following formula was then applied: Y=a+(b−a)/(1+(x/c)^d) Where ‘a’ is the minimum, ‘b’ is the maximum, ‘c’ is the pIC50 and ‘d’ is the Hill slope. Protein Expression and Purification
Recombinant human bromodomains containing the N-terminal bromodomain (BRD2-BD1 (71-194), BRD3-BD1 (24-144) and BRD4-BD1 (44-164)) or dual bromodomains (BRD4-BD12 (1-477), BRD4-BD12 (1-472)) were expressed in E. coli cells (in a modified pET vector) with an N-terminal six-His tag and purified using a combination of both IMAC (Ni-affinity) and size exclusion chromatography steps.
Recombinant BRD proteins were expressed using the E. coli strain BL21-CodonPlus (DE3) (Agilent Technologies Calif., USA). Cells were grown in Terrific Broth (TB) media to an OD600 of 1.2 at 37° C. at which temperature was reduced to 25° C., protein was induced with 1.0 mM ispropyl-β-D-thiogalactopyranoside (“IPTG”) for 12-18 hours and harvested by centrifugation at 8000×g for 20 minutes. Cells were re-suspended in 0.1M K2PO4 pH 8.0, 250 mM NaCl, 10% Glycerol, 0.75% NP-40, 25 mM Imidazole, 5 mM beta-mercaptoethanol (“BME”) with 0.2 mg/ml Lysosyme, 2.0 mM phenylmethanesulfonyl fluoride (“PMSF”), 25 μg/ml DNAse I, incubated on ice for 30 minutes and lyzed with a cell disruptor (MicroFluidics Mass., USA). The lysate was clarified by centrifugation at 20,000×g for 2 hours. The protein was captured with Ni-NTA resin (Life Technologies, USA). Contaminating proteins were washed off with 25 mM Tris-HCl pH 8.3, 250 mM NaCl, 12% Glycerol and 50 mM Imidazole. Following 3× wash steps, protein was eluted step wise using a 50 mM HEPES pH 7.5, 500 mM NaCl and 400 mM Imidazole. The protein was further purified using Gel Filtration column 26/600 Superdex 200 (GE Biosciences NJ, USA) in 50 mM HEPES pH 7.5, 250 mM NaCl. The protein was aliquoted and flash-frozen in liquid Nitrogen. […]

MV-4-11 = experiment: Oncology cell growth assay MV-4-11 (CellTiter Glo, 72 hours); format: cell-based; settings: Homo sapiens, MV4-11, 72 h; MV-4-11 cell growth inhibitory activity, 3d
How it was run: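 MV-4-11 cells (MLL-AF4 AML) exposed 72 h to 8-point 1:3 titration, top final 10 μM, 0.2% DMSO. CellTiter Glo luminescence as cell-number readout, normalized to DMSO controls; pIC50 from four-parameter fit.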

Compound | IC50 (bromodomain) | IC50 (BRD4-BD1 (44-164)) | IC50 (MV-4-11)
Cc1noc(C)c1-c1cnc2c(c1)c(C(F)C1CCS(=O)(=O)CC1)cn2S(=O)(=O)c1ccccc1 (stereo not drawn) [P-0095, 4-[[1-(benzenesulfonyl)-5-(3,5-dimethylisoxazol-4-yl)pyrrolo[2,3-b]pyridin-3-yl]-fluoro-methyl]thiane 1,1-dioxide] | < 10 µM | 1 to 10 µM | –
Cc1noc(C)c1-c1cnc2c(c1)c(I)cn2S(=O)(=O)c1ccccc1 [P-0087, 4-[1-(benzenesulfonyl)-3-iodo-pyrrolo[2,3-b]pyridin-5-yl]-3,5-dimethyl-isoxazole] | < 10 µM | 1 to 10 µM | –
Cc1noc(C)c1-c1cnc2c(CC3CC3)c[nH]c2c1 [P-0070, 4-[3-(cyclopropylmethyl)-1H-pyrrolo[3,2-b]pyridin-6-yl]-3,5-dimethyl-isoxazole] | < 10 µM | 1 to 10 µM | –
COC(c1c[nH]c2cc(-c3c(C)noc3C)cnc12)C1CC1 (stereo not drawn) [P-0069] | < 10 µM | 1 to 10 µM | –
Cc1noc(C)c1-c1cnc2[nH]cc(C(=O)c3ccc(C(F)(F)F)cc3)c2c1 [P-0016, [5-(3,5-dimethylisoxazol-4-yl)-1H-pyrrolo[2,3-b]pyridin-3-yl]-[4-(trifluoromethyl)phenyl]methanone] | < 10 µM | 1 to 10 µM | –
Cc1noc(C)c1-c1cnc2c(c1)c(C(O)C1CCS(=O)(=O)CC1)cn2S(=O)(=O)c1ccccc1 (stereo not drawn) [P-0094, [1-(benzenesulfonyl)-5-(3,5-dimethylisoxazol-4-yl)pyrrolo[2,3-b]pyridin-3-yl]-(1,1-dioxothian-4-yl)methanol] | < 10 µM | 1 to 10 µM | –
Cc1noc(C)c1-c1cnc2[nH]c(-c3ccc(F)cc3)c(C(=O)c3cccnc3)c2c1 [P-0008, [5-(3,5-dimethylisoxazol-4-yl)-2-(4-fluorophenyl)-1H-pyrrolo[2,3-b]pyridin-3-yl]-(3-pyridyl)methanone] | < 10 µM | 1 to 10 µM | –
Cc1noc(C)c1-c1cnc2c(CC3CC3)cn(S(=O)(=O)CCC(F)(F)F)c2c1 [P-0074, 4-[3-(cyclopropylmethyl)-1-(3,3,3-trifluoropropylsulfonyl)pyrrolo[3,2-b]pyridin-6-yl]-3,5-dimethyl-isoxazole] | < 10 µM | 1 to 10 µM | –
Cc1noc(C)c1-c1cnc2cc[nH]c2c1 [P-0018, 3,5-dimethyl-4-(1H-pyrrolo[3,2-b]pyridin-6-yl)isoxazole] | < 10 µM | 1 to 10 µM | –
Cc1noc(C)c1-c1cnc2c(I)c[nH]c2c1 [P-0072, 4-(3-iodo-1H-pyrrolo[3,2-b]pyridin-6-yl)-3,5-dimethyl-isoxazole] | < 10 µM | 1 to 10 µM | –
Cc1noc(C)c1-c1cnc2c(C#N)c[nH]c2c1 [P-0082, 6-(3,5-dimethylisoxazol-4-yl)-1H-pyrrolo[3,2-b]pyridine-3-carbonitrile] | < 10 µM | 1 to 10 µM | –
Cc1noc(C)c1-c1cnc2c(C#N)cn(S(=O)(=O)c3ccccc3)c2c1 [P-0081, 1-(benzenesulfonyl)-6-(3,5-dimethylisoxazol-4-yl)pyrrolo[3,2-b]pyridine-3-carbonitrile] | < 10 µM | ≤ 1 µM | –
Cc1noc(C)c1-c1cnc2c(C(=O)O)cn(S(=O)(=O)c3ccccc3)c2c1 [P-0169, 1-(benzenesulfonyl)-6-(3,5-dimethylisoxazol-4-yl)pyrrolo[3,2-b]pyridine-3-carboxylic acid] | < 10 µM | ≤ 1 µM | –
Cc1noc(C)c1-c1cnc2[nH]c(C)c(C(=O)c3cccnc3)c2c1 [P-0006, [5-(3,5-dimethylisoxazol-4-yl)-2-methyl-1H-pyrrolo [2,3-b]pyridin-3-yl]-(3-pyridyl)methanone] | < 10 µM | 1 to 10 µM | –
Cc1noc(C)c1-c1cnc2[nH]cc(I)c2c1 [P-0086, 4-(3-iodo-1H-pyrrolo[2,3-b]pyridin-5-yl)-3,5-dimethyl-isoxazole] | < 10 µM | 1 to 10 µM | –
Cc1noc(C)c1-c1cnc2[nH]c(-c3ccccc3)cc2c1 [P-0001, 3,5-dimethyl-4-(2-phenyl-1H-pyrrolo[2,3-b]pyridin-5-yl)isoxazole] | < 10 µM | 1 to 10 µM | –
[2H]C([2H])([2H])n1cc(I)c2cc(-c3c(C)noc3C)cnc21 [P-0088, 4-[3-iodo-1-(trideuteriomethyl)pyrrolo[2,3-b]pyridin-5-yl]-3,5-dimethyl-isoxazole] | < 10 µM | 1 to 10 µM | –
COCCn1cc(-c2cn(S(=O)(=O)C3CCCC3)c3cc(-c4c(C)noc4C)cnc23)cn1 [P-0151, 4-[1-cyclopentylsulfonyl-3-[1-(2-methoxyethyl)pyrazol-4-yl]pyrrolo[3,2-b]pyridin-6-yl]-3,5-dimethyl-isoxazole] | < 10 µM | – | ≤ 1 µM
Cc1noc(C)c1-c1cnc2c(c1)c(CC1CCN(C(=O)c3ccccc3)CC1)cn2C [P-0115, [4-[[5-(3,5-dimethylisoxazol-4-yl)-1-methyl-pyrrolo[2,3-b]pyridin-3-yl]methyl]-1-piperidyl]-phenyl-methanone] | < 10 µM | – | ≤ 1 µM
Cc1noc(C)c1-c1cnc2c(-c3cnn(C)c3)cn(CC3(F)CCCCC3)c2c1 [P-0212, 4-[1-[(1-fluorocyclohexyl)methyl]-3-(1-methylpyrazol-4-yl)pyrrolo[3,2-b]pyridin-6-yl]-3,5-dimethyl-isoxazole] | < 10 µM | – | ≤ 1 µM
Cc1noc(C)c1-c1cnc2c(-c3cnn(C)c3)cn(C(CC#N)C3CCCC3)c2c1 (stereo not drawn) [P-0197, 3-cyclopentyl-3-[6-(3,5-dimethylisoxazol-4-yl)-3-(1-methylpyrazol-4-yl)pyrrolo[3,2-b]pyridin-1-yl]propanenitrile] | < 10 µM | – | ≤ 1 µM
COC(c1c(F)cccc1Cl)c1c[nH]c2ncc(-c3c(C)noc3C)cc12 (stereo not drawn) [P-0014, 4-[3-[(2-chloro-6-fluoro-phenyl)-methoxy-methyl]-1H-pyrrolo[2.3-b]pyridin-5-yl]-3,5-dimethyl-isoxazole] | < 10 µM | – | ≤ 1 µM
Cc1noc(C)c1-c1cnc2c(-c3cnn(C)c3)cn(S(=O)(=O)c3cccc(F)c3)c2c1 [P-0122, 4-[1-(3-fluorophenyl)sulfonyl-3-(1-methylpyrazol-4-yl)pyrrolo[3,2-b]pyridin-6-yl]-3,5-dimethyl-isoxazole] | < 10 µM | – | ≤ 1 µM
Cc1noc(C)c1-c1cnc2ccn(C(C)c3ccccc3)c2c1 (stereo not drawn) [P-0159, 3,5-dimethyl-4-[1-(1-phenylethyl)pyrrolo[3,2-b]pyridin-6-yl]isoxazole] | < 10 µM | – | ≤ 1 µM
